These results are taken from patent publication US20220040123A1, “ANTI-HELICOBACTER FOOD COMPOSITION COMPRISING BETA-CARYOPHYLLENE” (priority 2018, published 2022).

Structures are written as SMILES.

One assay has as its system H. pylori. As to the kind of experiment: Minimum growth inhibitory concentration test (absorbance at 650 nm after 72 hours). The class given is cell-based, Helicobacter pylori (ATCC 49503). The following applies: Mueller Hinton broth with 10% bovine serum, absorbance 650 nm. The procedure: For H. pylori culture, an H. pylori (ATCC 49503) strain was inoculated on a Brucella agar medium containing 10% bovine serum and antibiotics (vancomycin, esfsuldin, trimethoprim, and amphotericin B), and cultured in an anaerobic incubator which maintains 10% CO2, 5% O2, 85% N2, and 97% or more humidity, at 37° C. for 72 hours. For a minimum growth inhibitory concentration test, each of 7.81, 15.63, 31.25, 62.5, 125, 250 and 500 μg and 1, 2 and 4 mg of beta-caryophyllene was added to a medium obtained by adding 10% bovine serum to Mueller Hinton broth, and then cultured in a CO2 incubator at a relative humidity of 100% for 72 hours. Each of the bacterial solutions cultured for 72 hours was measured for absorbance at 650 nm using a spectrophotometer to determine the minimum inhibitory concentration (MIC) of beta-caryophyllene, and the results are graphically shown in FIG. 2.

The test system of the next assay is Helicobacter pylori. As to the kind of experiment: Immunohistochemical staining of gastric mucosa and submucosal layer with Helicobacter pylori-specific antibody. The class given is in vivo, Mongolian gerbils. The procedure: Mongolian gerbils were infected with a Helicobacter pylori strain (ATCC 49503) and then subjected to two weeks of acclimatization. To this end, the animals were fasted for 12 hours before and after inoculation with the Helicobacter pylori strain. 500 μl (1×10^9 CFU) of a bacterial suspension was prepared by suspending H. pylori in sterile physiological saline to a concentration of 2×10^9 CFU/ml and introduced directly into the stomach by using a feeding needle. For stable infection, the H. pylori strain was dispensed three times at 48 hour-intervals.
Beta-caryophyllene was administered directly into the gastrointestinal at doses of 100 mg/kg and 500 mg/kg for the low and high dose groups, respectively, for 12 weeks after two weeks after infection with H. pylori. The same amount of corn oil as the beta-caryophyllene was administered to each of the non-infected group and the infected group.
At weeks 0, 6 and 12 of the experiment, a paraffin block was prepared from with the stomach tissue of the infected animal model, and then stomach tissue slide sample with a thickness of 2 μm was prepared from the paraffin block using a microtome (Leica). For immunohistochemical staining, the slide was deparaffinized, heated with citrate buffer in a bath for 20 minutes, and then subjected to immunohistochemical staining using an IHC kit (Vectastain ABC kit, Vector). […]

The test system of assay [1] is CagA, VacA and SecA proteins. The assay can be described thus: Western blotting of H. pylori toxins CagA, VacA and SecA. The class given is cell-based, Helicobacter pylori. The following applies: 125, 250 and 500 μg/ml, 3 days culture. The procedure:
To evaluate the effect of beta-caryophyllene treatment on the production of toxins secreted by Helicobacter pylori, Helicobacter pylori was treated with beta-caryophyllene, and then the amounts of CagA, VacA and SecA proteins were analyzed by Western blotting.
For Western blotting, samples obtained by treating Helicobacter pylori with beta-caryophyllene at concentrations of 0, 125, 250 and 500 μg/ml and culturing the treated Helicobacter pylori for 3 days were lysed with RIPA lysis buffer (Millipore) on ice for 30 minutes and then centrifuged. The supernatants were collected, and then proteins therein were quantified using a spectrophotometer (Infinite M200, TECAN).
Equal amounts of protein samples were loaded and electrophoresed on 10% SDS polyacrylamide gel, and the protein fractions were transferred to nitrocellulose membranes (PALL) and reacted with CagA (mouse monoclonal IgG antibody, Santa Cruz), VacA (rabbit polyclonal IgG antibody, Santa Cruz), SecA (rabbit polyclonal IgG antibody, produced by the applicant) and anti-Helicobacter pylori (rabbit polyclonal IgG antibody, produced by the applicant) antibodies at 4° C. for 16 hours. After completion of the primary antibody reaction, secondary blocking (1 hr/RT) was performed. As secondary antibodies, donkey anti-rabbit IgG-HRP, donkey anti-mouse IgG-HRP or donkey anti-goat IgG-HRP (Santa Cruz) was used depending on the primary antibody. The reaction products were treated by an enhanced chemiluminescence kit (Thermo), and then analyzed by Chemidoc (Fusion solo, Vilber Lourmat).
On the technique in general: Immunoblotting shows a protein as a band on a membrane.

Assay [2] concerns sabA, hopZ, hpaA, alpA, alpB and babA genes. The assay can be described thus: RT-PCR of genes involved in the adhesion of H. pylori. The class given is cell-based, Helicobacter pylori. As to conditions: 31.25-500 μg/ml. As to the method:
In order to evaluate the effect of beta-caryophyllene against the adhesion function of H. pylori, changes in the expression of the genes sabA, hopZ, hpaA, alpA, alpB and babA involved in the adhesion of H. pylori were analyzed, and the results are shown in FIG. 8. Specifically, H. pylori was treated with beta-caryophyllene at concentrations of 31.25, 62.5, 125, 250 and 500 μg/ml, and the expression of the genes was analyzed by RT-PCR.

Assay [3] relates to flhA, flaA, flaB and flgE genes. As to the kind of experiment: RT-PCR of flagella-associated genes of H. pylori. The class given is cell-based, Helicobacter pylori. As to conditions: 31.25-500 μg/ml. As to the method:
In order to evaluate the effect of beta-caryophyllene treatment on the inhibition of flagella of H. pylori, changes in the expression of the flhA, flaA, flaB and flgE genes which constitute the flagella or are associated with the function of the flagella were examined, and the results are shown in FIG. 9. Specifically, H. pylori was treated with beta-caryophyllene at concentrations of 31.25, 62.5, 125, 250 and 500 μg/ml, and expression of the genes was analyzed by RT-PCR.

Assay [4] concerns Helicobacter pylori 16S rRNA. As to the kind of experiment: qPCR test for gastric mucosal Helicobacter pylori (16S rRNA). As to conditions: for Gene expression level (Ct): 28 days, 16S rRNA vs 18SrRNA, control G3 13.80. The class given is in vivo, C57BL/6 mouse. As to the method: In order to compare the Helicobacter pylori eradiation effect between beta-caryophyllene and the antibiotics that are used for treatment of Helicobacter pylori infection, an animal test was performed using the test groups and doses shown in Table 1 below.
Each test substance was suspended in an excipient according to the dose and administered to each mouse once a day at the same time every day for a total of 28 days in a dose of 5 ml per kg mouse (C57BL/6 mouse) by oral gavage method.
After completion of the test, RNA was collected from the aseptically collected gastric mucosal tissue, and then synthesized into DNA to perform a PCR test. The marker gene used in this experiment was 16S rRNA, which is specifically found only in H. pylori and is not found in humans or mice. 18SrRNA was used as a loading control gene of the used DNA sample. The Ct value for each gene was obtained by reacting the fluorescent intercalator SYBR Green with the corresponding primer and DNA, and then calculated by relative quantification, and the results are shown in Table 4 below.
For orientation: In qPCR the cycle at which signal appears reflects the starting amount.

As to `C=C1CC/C=C(\C)CC[C@@H]2[C@@H]1CC2(C)C` [beta-caryophyllene], the “minimum inhibitory concentration (MIC) against H. pylori” value in the assay with H. pylori is 1 mg. The “Helicobacter pylori infection in gastric mucosa and submucosal layer (IHC)” value with Helicobacter pylori (week 6, low dose (100 mg/kg) and high dose (500 mg/kg) groups vs infected group) was “significantly decreased”. Moreover, the “Helicobacter pylori detection in gastric mucosa (IHC)” value in the assay with Helicobacter pylori (week 12, low dose (100 mg/kg) and high dose (500 mg/kg) groups vs infected group) is “hardly detected”. Also, in assay [1], the “secretion of CagA (Western blot)” value is on record as “inhibited”, the “secretion of SecA (Western blot)” value was “inhibited” and the “secretion of VacA (Western blot)” value is on record as “inhibited”. In addition, in assay [2], the “expression of alpA gene” value was “decreased”, the “expression of alpB gene” value is reported as “decreased” and the “expression of babA gene” value is listed as “decreased”. For the same molecule, in assay [3], the “expression of flgE gene” value is recorded as “decreased” and the “expression of flhA gene” value was “decreased”. In addition, the “Gene expression level (Ct)” value in assay [4] (G6: 100 mg/kg/day) is reported as 11.99 Ct. The “decrease of Ct value compared to G3” value in assay [4] (G6: 100 mg/kg/day, not statistically significant) is reported as 13.1%. The “Gene expression level (Ct)” value in assay [4] (G7: 200 mg/kg/day) stood at 9.40 Ct. The “decrease of Ct value compared to G3” value in assay [4] (G7: 200 mg/kg/day, not statistically significant) was 31.9%. The “Gene expression level (Ct)” value in assay [4] (G8: 500 mg/kg/day) is 5.71 Ct. The “decrease of Ct value compared to G3” value in assay [4] (G8: 500 mg/kg/day, statistically significant) is 58.6%.
